PubChem BioAssay AID488870 (Broad Institute, 2010)
Active and inactive are the calls of the source.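 The calls were made as follows: active = a drop in nitrite signal whose fitted half-maximal concentration is at most ten times the top tested dose; inconclusive = flat fit with 30 to 70% inhibition, or poor curve fit; inactive = the rest.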

test: inhibitors of cytokine-induced nitrite release, dose response, cell-based, Griess absorbance, INS-1E, dry powder, set 3 (AID 488870); conditions: INS-1E cytokine-induced nitrite, Griess absorbance, 48 h; at 19.5 µM (top of the series)

SMILES	activity change, negative = inhibition
Cc1ccc(S(=O)(=O)N(C)C[C@@H]2Oc3c(NC(=O)Nc4cccc5ccccc45)cccc3C(=O)N([C@H](C)CO)C[C@H]2C)cc1	-10.1% (inactive)
COc1ccc(S(=O)(=O)N(C)C[C@H]2Oc3c(NC(=O)Nc4cccc5ccccc45)cccc3C(=O)N([C@H](C)CO)C[C@H]2C)cc1	-1.83% (inactive)
C[C@@H]1CN([C@@H](C)CO)C(=O)c2cccc(NC(=O)Nc3cccc4ccccc34)c2O[C@H]1CN(C)S(C)(=O)=O	9.52% (inactive)
COc1ccc(S(=O)(=O)N(C)C[C@@H]2Oc3c(NS(=O)(=O)c4cn(C)cn4)cccc3C(=O)N([C@@H](C)CO)C[C@H]2C)cc1	4.99% (inactive)
COc1ccc(S(=O)(=O)N(C)C[C@@H]2Oc3c(cccc3N(C)C)C(=O)N([C@@H](C)CO)C[C@H]2C)cc1	4.92% (inactive)
COc1ccc(S(=O)(=O)N(C)C[C@@H]2Oc3c(NC(=O)NC(C)C)cccc3C(=O)N([C@@H](C)CO)C[C@H]2C)cc1	7.35% (inactive)
COc1ccc(S(=O)(=O)N(C)C[C@@H]2Oc3c(NC(=O)C4CCOCC4)cccc3C(=O)N([C@@H](C)CO)C[C@H]2C)cc1	5.9% (inactive)
Cc1noc(C)c1NC(=O)N(C)C[C@@H]1Oc2c(NC(=O)Nc3cccc4ccccc34)cccc2C(=O)N([C@@H](C)CO)C[C@H]1C	-7.11% (inactive)
C[C@@H]1CN([C@@H](C)CO)C(=O)c2cccc(NC(=O)Nc3cccc4ccccc34)c2O[C@H]1CN(C)S(=O)(=O)c1cn(C)cn1	-10.7% (inactive)
C[C@@H]1CN([C@@H](C)CO)C(=O)c2cccc(NC(=O)Nc3cccc4ccccc34)c2O[C@H]1CN(C)CC1CC1	-0.187% (inactive)
COc1ccc(S(=O)(=O)N(C)C[C@@H]2Oc3c(NC(=O)Nc4c(C)noc4C)cccc3C(=O)N([C@@H](C)CO)C[C@H]2C)cc1	-4.75% (inactive)
COc1ccc(S(=O)(=O)N(C)C[C@@H]2Oc3c(NC(=O)Nc4cccc5ccccc45)cccc3C(=O)N([C@H](C)CO)C[C@@H]2C)cc1	3.88% (inactive)
COc1ccc(S(=O)(=O)N(C)C[C@@H]2Oc3c(NC(=O)c4cc(C)nn4C)cccc3C(=O)N([C@@H](C)CO)C[C@H]2C)cc1	-2.17% (inactive)
C[C@@H]1CN([C@@H](C)CO)C(=O)c2cccc(NC(=O)Nc3cccc4ccccc34)c2O[C@H]1CN(C)S(=O)(=O)c1ccccc1	-19.1% (inactive)
C[C@@H]1CN([C@@H](C)CO)C(=O)c2cccc(NC(=O)Nc3cccc4ccccc34)c2O[C@H]1CN(C)S(=O)(=O)c1ccc2c(n1)N(C)CCO2	-13.9% (inactive)
COc1ccc(S(=O)(=O)N(C)C[C@@H]2Oc3c(NC(=O)C4CC4)cccc3C(=O)N([C@@H](C)CO)C[C@H]2C)cc1	-4.99% (inactive)
C[C@@H]1CN([C@@H](C)CO)C(=O)c2cccc(NC(=O)Nc3ccc(F)cc3)c2O[C@H]1CN(C)S(=O)(=O)c1ccc(F)cc1	-6.48% (inactive)
COc1ccc(NC(=O)Nc2cccc3c2O[C@@H](CN(C)S(=O)(=O)c2ccc(OC)cc2)[C@H](C)CN([C@@H](C)CO)C3=O)cc1	-3.9% (inactive)
C[C@@H]1CN([C@@H](C)CO)C(=O)c2cccc(NC(=O)Nc3ccccc3)c2O[C@H]1CN(C)S(=O)(=O)c1ccc(Cl)cc1	-8% (inactive)
COc1ccc(S(=O)(=O)N(C)C[C@@H]2Oc3c(NC(=O)c4ccc(-c5nccs5)cc4)cccc3C(=O)N([C@@H](C)CO)C[C@H]2C)cc1	-2.29% (inactive)
COc1ccc(S(=O)(=O)N(C)C[C@@H]2Oc3ccc(NC(=O)Nc4cccc5ccccc45)cc3C(=O)N([C@@H](C)CO)C[C@H]2C)cc1	-15.4% (inactive)
COc1ccc(S(=O)(=O)N(C)C[C@@H]2Oc3c(NS(=O)(=O)c4ccc(Cl)cc4)cccc3C(=O)N([C@@H](C)CO)C[C@H]2C)cc1	-7.18% (inactive)
Cc1ccc(S(=O)(=O)N(C)C[C@@H]2Oc3c(NC(=O)Nc4ccc(F)cc4)cccc3C(=O)N([C@@H](C)CO)C[C@H]2C)cc1	-6.25% (inactive)
C[C@@H]1CN([C@@H](C)CO)C(=O)c2cccc(NC(=O)Nc3cccc4ccccc34)c2O[C@H]1CN(C)S(=O)(=O)c1cccs1	-14.1% (inactive)
COc1ccc(S(=O)(=O)N(C)C[C@@H]2Oc3c(NC(=O)Nc4ccc(C(F)(F)F)cc4)cccc3C(=O)N([C@@H](C)CO)C[C@H]2C)cc1	-18.3% (inactive)
COc1ccc(S(=O)(=O)N(C)C[C@@H]2Oc3c(NC(=O)Nc4cccc5ccccc45)cccc3C(=O)N([C@@H](C)CO)C[C@H]2C)cc1OC	-18.5% (inactive)
COc1ccc(S(=O)(=O)N(C)C[C@@H]2Oc3c(NC(=O)c4cnccn4)cccc3C(=O)N([C@@H](C)CO)C[C@H]2C)cc1	-9.05% (inactive)
C[C@@H]1CN([C@H](C)CO)C(=O)c2cccc(NC(=O)Nc3ccccc3)c2O[C@H]1CN(C)S(=O)(=O)c1ccc(Cl)cc1	4.79% (inactive)

SMILES	activity change, negative = inhibition
CNC[C@@H]1Oc2c(NC(=O)Nc3cccc4ccccc34)cccc2C(=O)N([C@@H](C)CO)C[C@H]1C	3.1% (inactive)
COc1ccc(S(=O)(=O)N(C)C[C@@H]2Oc3c(NC(=O)Nc4cccc5ccccc45)cccc3C(=O)N(C(C)C)C[C@H]2C)cc1	-11.1% (inactive)
COc1ccc(S(=O)(=O)N(C)C[C@@H]2Oc3c(NC(=O)C4CCCCC4)cccc3C(=O)N([C@@H](C)CO)C[C@H]2C)cc1	-0.334% (inactive)
C[C@@H]1CN([C@H](C)CO)C(=O)c2cccc(NC(=O)Nc3ccc(F)cc3)c2O[C@H]1CN(C)S(=O)(=O)c1ccc(Cl)cc1	-5.33% (inactive)
COc1ccc(S(=O)(=O)N(C)C[C@@H]2Oc3c(NS(=O)(=O)c4ccc(C)cc4)cccc3C(=O)N([C@@H](C)CO)C[C@H]2C)cc1	-5.68% (inactive)
C[C@H]1CN([C@@H](C)CO)C(=O)c2cccc(NC(=O)NC3CCCCC3)c2O[C@@H]1CN(C)S(C)(=O)=O	3.92% (inactive)
COc1ccc(S(=O)(=O)N(C)C[C@@H]2Oc3c(NC(=O)c4cccc5ccccc45)cccc3C(=O)N([C@@H](C)CO)C[C@H]2C)cc1	-13.8% (inactive)
C[C@@H]1CN([C@@H](C)CO)C(=O)c2cccc(NS(=O)(=O)c3ccccc3)c2O[C@H]1CN(C)Cc1ccc(C(F)(F)F)cc1	-12.5% (inactive)
COc1ccc(S(=O)(=O)N(C)C[C@@H]2Oc3c(NC(=O)c4ccncc4)cccc3C(=O)N([C@@H](C)CO)C[C@H]2C)cc1	-12.3% (inactive)
C[C@@H]1CN([C@@H](C)CO)C(=O)c2cccc(NC(=O)Nc3ccc(F)cc3)c2O[C@H]1CN(C)S(=O)(=O)c1ccc(Cl)cc1	-9.62% (inactive)
COc1ccc(S(=O)(=O)Nc2cccc3c2O[C@@H](CN(C)S(=O)(=O)c2ccc(OC)cc2)[C@H](C)CN([C@@H](C)CO)C3=O)cc1	-10.4% (inactive)
C[C@@H]1CN([C@@H](C)CO)C(=O)c2cccc(NC(=O)Nc3ccccc3)c2O[C@H]1CN(C)S(=O)(=O)c1ccc(F)cc1	-6.44% (inactive)
COc1ccc(S(=O)(=O)N(C)C[C@@H]2Oc3c(NC(=O)Nc4ccc(F)cc4)cccc3C(=O)N([C@@H](C)CO)C[C@H]2C)cc1	-7.65% (inactive)
Cc1ccc(S(=O)(=O)N(C)C[C@@H]2Oc3c(NC(=O)Nc4ccccc4)cccc3C(=O)N([C@@H](C)CO)C[C@H]2C)cc1	-10.1% (inactive)
COc1ccc(S(=O)(=O)N(C)C[C@@H]2Oc3c(NC(=O)Nc4cccc5ccccc45)cccc3C(=O)N([C@@H](C)CO)C[C@@H]2C)cc1	-1.85% (inactive)
C[C@@H]1CN([C@@H](C)CO)C(=O)c2cccc(NC(=O)Nc3cccc4ccccc34)c2O[C@H]1CN(C)C(=O)Nc1ccc(F)cc1	-13.6% (inactive)
C[C@@H]1CN([C@@H](C)CO)C(=O)c2cccc(NC(=O)Nc3cccc4ccccc34)c2O[C@H]1CN(C)S(=O)(=O)c1ccc2c(c1)oc(=O)n2C	-7.4% (inactive)
COc1ccc(S(=O)(=O)N(C)C[C@@H]2Oc3c(NS(C)(=O)=O)cccc3C(=O)N([C@@H](C)CO)C[C@H]2C)cc1	-4.1% (inactive)
COc1ccc(S(=O)(=O)N(C)C[C@@H]2Oc3c(NC(=O)Nc4ccccc4)cccc3C(=O)N([C@H](C)CO)C[C@H]2C)cc1	-11% (inactive)
COc1ccc(S(=O)(=O)N(C)C[C@H]2Oc3c(NC(=O)Nc4cccc5ccccc45)cccc3C(=O)N([C@@H](C)CO)C[C@@H]2C)cc1	-9.04% (inactive)
Cc1ccc(S(=O)(=O)N(C)C[C@@H]2Oc3c(NC(=O)Nc4ccccc4)cccc3C(=O)N([C@H](C)CO)C[C@H]2C)cc1	11.6% (inactive)
COc1ccc(S(=O)(=O)N(C)C[C@@H]2Oc3c(NS(=O)(=O)c4ccc(F)cc4)cccc3C(=O)N([C@@H](C)CO)C[C@H]2C)cc1	9.8% (inactive)
COc1ccc(S(=O)(=O)N(C)C[C@@H]2Oc3c(NS(=O)(=O)c4ccccc4)cccc3C(=O)N([C@@H](C)CO)C[C@H]2C)cc1	2.87% (inactive)
C[C@@H]1CN([C@@H](C)CO)C(=O)c2cccc(NC(=O)Nc3cccc4ccccc34)c2O[C@H]1CN(C)S(=O)(=O)c1ccc(Cl)cc1	-22.9% (inactive)
COc1ccc(S(=O)(=O)N(C)C[C@@H]2Oc3c(NC(=O)Nc4ccc(F)cc4)cccc3C(=O)N([C@H](C)CO)C[C@H]2C)cc1	20.3% (inactive)
COc1ccc(S(=O)(=O)N(C)C[C@@H]2Oc3c(NC(=O)Nc4ccc5c(c4)OCO5)cccc3C(=O)N([C@@H](C)CO)C[C@H]2C)cc1	-8.76% (inactive)
COc1ccc(S(=O)(=O)N(C)C[C@@H]2Oc3c(NC(=O)Nc4ccccc4)cccc3C(=O)N([C@@H](C)CO)C[C@H]2C)cc1	-7.93% (inactive)
